Measurements published in patent US10710978B2, “STK4 inhibitors for treatment of hematologic malignancies” (Dana-Farber Cancer Institute, Inc., priority 2015, dated 2020).
Read-outs that look alike come from different tables or passages of the source.

Key:
Experiment in all cases: KiNativ assay
Type in all cases: binding
[1] = target: GCK (Homo sapiens (Human), UniProt Q12851); conditions: H929 live cell
Protocol: (§1) Biochemical IC50s of the compounds of the present disclosure against various kinases were measured in a KiNativ assay. Compounds were screened in duplicate at 10 μM in H929 live cell. IC50 was measured via Mass spectroscopy (MS).

[2] = tested on: AurA, AurB, AurC; conditions: H929 live cell
Protocol: as §1

[3] = target: PKCi (Homo sapiens (Human), UniProt P41743); conditions: H929 live cell
Protocol: as §1

[4] = target: MAP2K4 (Homo sapiens (Human), UniProt P45985); conditions: H929 live cell
Protocol: as §1

[5] = target: AurB (Homo sapiens (Human), UniProt Q96GD4); conditions: H929 live cell
Chain of AurB (Q96GD4 whole entry): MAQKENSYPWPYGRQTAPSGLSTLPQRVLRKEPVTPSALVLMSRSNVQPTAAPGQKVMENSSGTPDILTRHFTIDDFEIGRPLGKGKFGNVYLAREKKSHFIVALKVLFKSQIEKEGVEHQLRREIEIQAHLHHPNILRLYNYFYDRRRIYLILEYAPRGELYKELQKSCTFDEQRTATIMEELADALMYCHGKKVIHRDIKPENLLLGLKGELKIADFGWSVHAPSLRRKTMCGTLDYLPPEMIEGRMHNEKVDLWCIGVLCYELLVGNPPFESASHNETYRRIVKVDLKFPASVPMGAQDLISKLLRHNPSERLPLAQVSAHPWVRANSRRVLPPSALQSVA
Protocol: as §1

[6] = target: ACK (Homo sapiens (Human), UniProt Q07912); conditions: H929 live cell
Protocol: as §1

[7] = target: PIK3CG (Homo sapiens (Human), UniProt P48736); conditions: H929 live cell
Protocol: as §1

[8] = tested on: MST4; conditions: H929 live cell
Protocol: as §1

[9] = target: RSKL1 (Homo sapiens (Human), UniProt Q96S38); conditions: H929 live cell
Chain of RSKL1 (Q96S38 whole entry): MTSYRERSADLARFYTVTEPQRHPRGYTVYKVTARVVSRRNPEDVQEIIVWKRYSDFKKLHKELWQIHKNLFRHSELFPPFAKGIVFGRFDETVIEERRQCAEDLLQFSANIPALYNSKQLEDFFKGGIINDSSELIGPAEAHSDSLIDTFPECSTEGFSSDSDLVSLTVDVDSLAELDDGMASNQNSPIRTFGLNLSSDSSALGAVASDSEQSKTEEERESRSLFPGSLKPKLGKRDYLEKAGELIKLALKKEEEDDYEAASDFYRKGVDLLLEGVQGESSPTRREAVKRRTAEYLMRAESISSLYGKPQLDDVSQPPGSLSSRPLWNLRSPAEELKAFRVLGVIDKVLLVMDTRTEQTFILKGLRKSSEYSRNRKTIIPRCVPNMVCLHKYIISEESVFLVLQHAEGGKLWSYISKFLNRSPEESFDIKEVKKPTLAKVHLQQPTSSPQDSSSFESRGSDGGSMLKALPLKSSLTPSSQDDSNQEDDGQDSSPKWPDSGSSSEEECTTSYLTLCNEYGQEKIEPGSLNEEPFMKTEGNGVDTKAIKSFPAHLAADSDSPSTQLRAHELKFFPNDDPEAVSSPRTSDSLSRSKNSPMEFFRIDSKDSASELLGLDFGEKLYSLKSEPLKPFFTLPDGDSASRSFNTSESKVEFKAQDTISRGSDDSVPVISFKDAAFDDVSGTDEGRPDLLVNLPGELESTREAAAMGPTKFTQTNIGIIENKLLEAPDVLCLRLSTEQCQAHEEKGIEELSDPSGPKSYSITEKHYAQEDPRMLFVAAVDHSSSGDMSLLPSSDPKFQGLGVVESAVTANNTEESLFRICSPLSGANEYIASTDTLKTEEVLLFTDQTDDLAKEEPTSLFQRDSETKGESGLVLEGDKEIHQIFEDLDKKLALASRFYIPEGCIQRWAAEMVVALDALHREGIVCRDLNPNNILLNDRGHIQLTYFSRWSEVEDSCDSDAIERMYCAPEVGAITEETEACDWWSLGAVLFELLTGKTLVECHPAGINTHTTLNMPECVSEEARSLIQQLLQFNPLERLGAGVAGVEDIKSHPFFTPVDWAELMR
Protocol: as §1

[10] = target: p38a (Homo sapiens (Human), UniProt Q16539); conditions: H929 live cell, read-out: % inhibition (range)
Protocol: as §1

[11] = target: PKR (Homo sapiens (Human), UniProt P19525); conditions: H929 live cell
Protocol: as §1

[12] = target: eEF2K (Homo sapiens (Human), UniProt O00418); conditions: H929 live cell
Protocol: as §1

[13] = target: Erk2 (Homo sapiens (Human), UniProt P28482); conditions: H929 live cell
Protocol: as §1

[14] = target: FRAP (Homo sapiens (Human), UniProt P42345); conditions: H929 live cell
Protocol: as §1

[15] = target: PKD3 (Homo sapiens (Human), UniProt O94806); conditions: H929 live cell
Protocol: as §1

[16] = target: GSK3B (Homo sapiens (Human), UniProt P49841); conditions: H929 live cell
Protocol: as §1

[17] = target: PRP4 (Homo sapiens (Human), UniProt Q13523); conditions: H929 live cell
Protocol: as §1

[18] = target: SMG1 (Homo sapiens (Human), UniProt Q96Q15); conditions: H929 live cell
Protocol: as §1

[19] = target: PIK3CB (Homo sapiens (Human), UniProt P42338); conditions: H929 live cell
Protocol: as §1

[20] = target: MAP3K2 (Homo sapiens (Human), UniProt Q9Y2U5); conditions: H929 live cell
Chain of MAP3K2 (Q9Y2U5 whole entry): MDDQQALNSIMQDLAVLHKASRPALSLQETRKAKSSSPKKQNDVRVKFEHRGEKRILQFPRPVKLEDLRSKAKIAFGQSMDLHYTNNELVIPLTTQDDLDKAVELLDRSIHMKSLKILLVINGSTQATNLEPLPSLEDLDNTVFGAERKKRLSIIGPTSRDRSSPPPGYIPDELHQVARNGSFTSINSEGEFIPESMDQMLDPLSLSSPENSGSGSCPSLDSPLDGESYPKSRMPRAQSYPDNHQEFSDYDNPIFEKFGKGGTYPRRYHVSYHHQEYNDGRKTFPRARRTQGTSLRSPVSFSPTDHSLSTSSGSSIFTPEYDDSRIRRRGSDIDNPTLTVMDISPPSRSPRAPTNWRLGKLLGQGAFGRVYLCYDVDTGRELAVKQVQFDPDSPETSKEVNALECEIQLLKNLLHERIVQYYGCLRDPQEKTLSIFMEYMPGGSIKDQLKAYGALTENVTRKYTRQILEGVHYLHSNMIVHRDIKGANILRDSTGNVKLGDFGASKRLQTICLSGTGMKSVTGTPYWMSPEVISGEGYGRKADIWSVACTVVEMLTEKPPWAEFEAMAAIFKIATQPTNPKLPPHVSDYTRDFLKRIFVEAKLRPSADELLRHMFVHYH
Protocol: as §1

[21] = tested on: MST1, MST2; conditions: H929 live cell
Protocol: as §1

[22] = target: AKT1 (Homo sapiens (Human), UniProt P31749); conditions: H929 live cell
Protocol: as §1

[23] = target: MLK3 (Homo sapiens (Human), UniProt Q16584); conditions: H929 live cell
Protocol: as §1

[24] = target: RSK2 domain2 (Homo sapiens (Human), UniProt P51812); conditions: H929 live cell
Protocol: as §1

[25] = target: CaMKK2 (Homo sapiens (Human), UniProt Q96RR4); conditions: H929 live cell
Protocol: as §1

[26] = target: PAN3 (Homo sapiens (Human), UniProt Q58A45); conditions: H929 live cell
Chain of PAN3 (Q58A45 whole entry): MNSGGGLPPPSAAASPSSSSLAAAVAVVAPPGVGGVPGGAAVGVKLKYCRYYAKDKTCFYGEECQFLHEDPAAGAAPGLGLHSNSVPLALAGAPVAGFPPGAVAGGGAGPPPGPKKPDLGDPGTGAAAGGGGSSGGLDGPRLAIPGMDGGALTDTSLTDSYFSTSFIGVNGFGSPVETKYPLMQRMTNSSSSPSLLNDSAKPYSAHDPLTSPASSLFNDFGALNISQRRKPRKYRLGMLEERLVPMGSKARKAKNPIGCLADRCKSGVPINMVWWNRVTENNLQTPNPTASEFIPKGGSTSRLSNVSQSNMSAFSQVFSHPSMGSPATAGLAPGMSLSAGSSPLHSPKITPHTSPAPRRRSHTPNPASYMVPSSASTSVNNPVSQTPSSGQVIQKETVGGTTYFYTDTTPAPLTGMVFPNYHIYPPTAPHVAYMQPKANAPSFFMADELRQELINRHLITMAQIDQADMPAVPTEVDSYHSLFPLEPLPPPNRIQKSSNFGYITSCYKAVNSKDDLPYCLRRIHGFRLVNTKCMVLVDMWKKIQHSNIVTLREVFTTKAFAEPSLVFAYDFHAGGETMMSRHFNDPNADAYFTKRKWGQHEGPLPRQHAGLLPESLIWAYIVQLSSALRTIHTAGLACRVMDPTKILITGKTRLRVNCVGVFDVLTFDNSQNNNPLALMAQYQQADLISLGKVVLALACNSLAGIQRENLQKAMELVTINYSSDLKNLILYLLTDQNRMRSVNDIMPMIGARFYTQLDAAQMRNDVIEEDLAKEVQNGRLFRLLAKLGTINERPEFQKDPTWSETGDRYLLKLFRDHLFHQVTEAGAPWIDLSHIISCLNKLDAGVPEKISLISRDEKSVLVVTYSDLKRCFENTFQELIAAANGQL
Protocol: as §1

[27] = target: CaMK2g (Homo sapiens (Human), UniProt Q13555); conditions: H929 live cell
Chain of CaMK2g (Q13555 whole entry): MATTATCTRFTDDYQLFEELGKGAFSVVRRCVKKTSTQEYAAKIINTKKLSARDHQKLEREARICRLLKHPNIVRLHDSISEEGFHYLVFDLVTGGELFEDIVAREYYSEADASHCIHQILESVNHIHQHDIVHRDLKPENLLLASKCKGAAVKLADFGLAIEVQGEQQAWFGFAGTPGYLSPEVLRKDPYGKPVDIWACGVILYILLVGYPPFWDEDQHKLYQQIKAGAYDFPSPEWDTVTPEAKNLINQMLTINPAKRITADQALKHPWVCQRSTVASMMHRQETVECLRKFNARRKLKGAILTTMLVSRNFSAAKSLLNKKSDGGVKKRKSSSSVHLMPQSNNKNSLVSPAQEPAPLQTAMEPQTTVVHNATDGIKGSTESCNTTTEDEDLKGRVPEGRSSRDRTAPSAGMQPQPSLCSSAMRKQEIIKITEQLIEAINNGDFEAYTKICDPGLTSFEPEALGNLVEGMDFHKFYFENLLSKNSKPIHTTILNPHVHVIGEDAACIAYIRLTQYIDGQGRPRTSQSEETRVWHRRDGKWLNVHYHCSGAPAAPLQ
Protocol: as §1

[28] = target: PKCz (Homo sapiens (Human), UniProt Q05513); conditions: H929 live cell
Chain of PKCz (Q05513 whole entry): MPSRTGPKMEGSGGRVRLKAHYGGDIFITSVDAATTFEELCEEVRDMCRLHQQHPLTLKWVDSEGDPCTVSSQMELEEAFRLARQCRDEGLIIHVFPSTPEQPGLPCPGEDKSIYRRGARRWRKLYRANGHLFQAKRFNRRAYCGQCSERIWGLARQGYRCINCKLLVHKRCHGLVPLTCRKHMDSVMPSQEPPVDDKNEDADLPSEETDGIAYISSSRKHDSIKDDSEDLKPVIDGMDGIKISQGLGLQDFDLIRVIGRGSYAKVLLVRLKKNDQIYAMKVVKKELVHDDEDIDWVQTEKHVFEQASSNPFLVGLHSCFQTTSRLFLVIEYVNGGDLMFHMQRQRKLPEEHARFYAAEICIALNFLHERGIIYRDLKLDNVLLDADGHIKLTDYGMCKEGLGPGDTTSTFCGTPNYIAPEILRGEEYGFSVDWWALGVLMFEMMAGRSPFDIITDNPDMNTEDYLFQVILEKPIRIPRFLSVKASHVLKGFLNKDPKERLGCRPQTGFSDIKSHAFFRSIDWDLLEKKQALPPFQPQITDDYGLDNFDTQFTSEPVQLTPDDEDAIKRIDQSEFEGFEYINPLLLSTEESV
Protocol: as §1

[29] = target: CDK7 (Homo sapiens (Human), UniProt P50613); conditions: H929 live cell
Protocol: as §1

[30] = tested on: MARK2, MARK3; conditions: H929 live cell
Protocol: as §1

[31] = target: BRAF (Homo sapiens (Human), UniProt P15056); conditions: H929 live cell
Protocol: as §1

[32] = target: STLK3 (Homo sapiens (Human), UniProt Q9UEW8); conditions: H929 live cell
Protocol: as §1

[33] = tested on: MARK1, MARK2; conditions: H929 live cell
Protocol: as §1

[34] = target: PEK (Homo sapiens (Human), UniProt Q9NZJ5); conditions: H929 live cell
Protocol: as §1

Chain of GCK (Q12851 whole entry): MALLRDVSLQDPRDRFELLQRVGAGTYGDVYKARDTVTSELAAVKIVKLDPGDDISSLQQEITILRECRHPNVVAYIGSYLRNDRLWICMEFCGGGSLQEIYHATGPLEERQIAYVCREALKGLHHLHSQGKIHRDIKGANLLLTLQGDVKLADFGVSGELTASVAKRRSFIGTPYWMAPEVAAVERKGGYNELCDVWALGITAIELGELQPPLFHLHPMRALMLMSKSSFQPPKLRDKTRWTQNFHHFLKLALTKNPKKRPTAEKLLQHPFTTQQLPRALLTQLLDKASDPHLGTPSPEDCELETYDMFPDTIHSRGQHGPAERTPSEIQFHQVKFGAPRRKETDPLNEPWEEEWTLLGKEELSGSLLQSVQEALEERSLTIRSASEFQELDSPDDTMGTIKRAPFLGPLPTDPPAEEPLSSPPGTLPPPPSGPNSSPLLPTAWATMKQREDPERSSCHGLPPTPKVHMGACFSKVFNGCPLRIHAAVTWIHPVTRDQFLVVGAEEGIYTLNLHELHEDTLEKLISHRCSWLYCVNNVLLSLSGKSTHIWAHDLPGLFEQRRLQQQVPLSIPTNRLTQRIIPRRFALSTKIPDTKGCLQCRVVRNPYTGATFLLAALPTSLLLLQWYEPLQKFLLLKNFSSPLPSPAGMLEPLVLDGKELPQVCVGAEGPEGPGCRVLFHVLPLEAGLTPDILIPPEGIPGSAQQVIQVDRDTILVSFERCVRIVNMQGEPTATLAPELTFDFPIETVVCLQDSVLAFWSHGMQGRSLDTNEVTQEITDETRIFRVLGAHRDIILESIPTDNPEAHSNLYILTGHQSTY

Structure (SMILES): CN(C1CC1)S(=O)(=O)c1ccc(-c2cnc(N)c(-c3ccc4c(c3)CCNC4=O)c2)c(F)c1 [Compound I-28, 4-(6-amino-5-(1-oxo-1,2,3,4-tetrahydroisoquinolin-6-yl)pyridin-3-yl)-N-cyclopropyl-3-fluoro-N-methylbenzenesulfonamide]
- inhibition at 10 µM ([1]; read-out: % inhibition (range)): 75 to 90%
- inhibition at 10 µM ([1]; read-out: inhibition (10 μM)): 84.7%
- % inhibition (range) ([2]; 10 μM): 0.0%
- inhibition (10 μM) [2]: 21.4%
- inhibition at 10 µM ([3]; read-out: % inhibition (range)): 0%
- inhibition at 10 µM ([3]; read-out: inhibition (10 μM)): 12.7%
- inhibition at 10 µM ([4]; read-out: % inhibition (range)): 0%
- inhibition at 10 µM ([4]; read-out: inhibition (10 μM)): 32.5%
- inhibition at 10 µM ([5]; read-out: % inhibition (range)): 0%
- inhibition at 10 µM ([5]; read-out: inhibition (10 μM)): 32.7%
- inhibition at 10 µM ([6]; read-out: % inhibition (range)): 0%
- inhibition at 10 µM ([6]; read-out: inhibition (10 μM)): -18.8%
- inhibition at 10 µM ([7]; read-out: % inhibition (range)): 0%
- inhibition at 10 µM ([7]; read-out: inhibition (10 μM)): 1.7%
- % inhibition (range) ([8]; 10 μM): 50-75%
- inhibition (10 μM) [8]: 63.9%
- inhibition at 10 µM ([9]; read-out: % inhibition (range)): 0%
- inhibition at 10 µM ([9]; read-out: inhibition (10 μM)): -26.1%
- inhibition at 10 µM [10]: 0%
- inhibition at 10 µM ([11]; read-out: % inhibition (range)): 0%
- inhibition at 10 µM ([11]; read-out: inhibition (10 μM)): -0.8%
- inhibition at 10 µM ([12]; read-out: % inhibition (range)): 0%
- inhibition at 10 µM ([12]; read-out: inhibition (10 μM)): -15.1%
- inhibition at 10 µM ([13]; read-out: % inhibition (range)): 0%
- inhibition at 10 µM ([13]; read-out: inhibition (10 μM)): 13.9%
- inhibition at 10 µM ([14]; read-out: % inhibition (range)): 35 to 50%
- inhibition at 10 µM ([14]; read-out: inhibition (10 μM)): 35.3%
- inhibition at 10 µM ([15]; read-out: % inhibition (range)): 35 to 50%
- inhibition at 10 µM ([15]; read-out: inhibition (10 μM)): 36.6%
- inhibition at 10 µM ([16]; read-out: % inhibition (range)): > 90%
- inhibition at 10 µM ([16]; read-out: inhibition (10 μM)): 96.4%
- inhibition at 10 µM ([17]; read-out: % inhibition (range)): 0%
- inhibition at 10 µM ([17]; read-out: inhibition (10 μM)): 3.7%
- inhibition at 10 µM ([18]; read-out: % inhibition (range)): 35 to 50%
- inhibition at 10 µM ([18]; read-out: inhibition (10 μM)): 42.9%
- inhibition at 10 µM ([19]; read-out: % inhibition (range)): 0%
- inhibition at 10 µM ([19]; read-out: inhibition (10 μM)): 1.9%
- inhibition at 10 µM ([20]; read-out: % inhibition (range)): 0%
- inhibition at 10 µM ([20]; read-out: inhibition (10 μM)): 7%
- % inhibition (range) ([21]; 10 μM): >90%
- inhibition (10 μM) [21]: 97.5%
- inhibition at 10 µM ([22]; read-out: % inhibition (range)): 0%
- inhibition at 10 µM ([22]; read-out: inhibition (10 μM)): 11.1%
- inhibition at 10 µM ([23]; read-out: % inhibition (range)): 0%
- inhibition at 10 µM ([23]; read-out: inhibition (10 μM)): 11.7%
- inhibition at 10 µM ([24]; read-out: % inhibition (range)): 0%
- inhibition at 10 µM ([24]; read-out: inhibition (10 μM)): -20%
- inhibition at 10 µM ([25]; read-out: % inhibition (range)): 50 to 75%
- inhibition at 10 µM ([25]; read-out: inhibition (10 μM)): 57%
- inhibition at 10 µM ([26]; read-out: % inhibition (range)): 0%
- inhibition at 10 µM ([26]; read-out: inhibition (10 μM)): -45.1%
- inhibition at 10 µM ([27]; read-out: % inhibition (range)): 0%
- inhibition at 10 µM ([27]; read-out: inhibition (10 μM)): -13%
- inhibition at 10 µM ([28]; read-out: % inhibition (range)): 0%
- inhibition at 10 µM ([28]; read-out: inhibition (10 μM)): 6.2%
- inhibition at 10 µM ([29]; read-out: % inhibition (range)): 0%
- inhibition at 10 µM ([29]; read-out: inhibition (10 μM)): 12.3%
- % inhibition (range) ([30]; 10 μM): 0.0%
- inhibition (10 μM) [30]: −7.8%
- inhibition at 10 µM ([31]; read-out: % inhibition (range)): 0%
- inhibition at 10 µM ([31]; read-out: inhibition (10 μM)): -4.6%
- inhibition at 10 µM ([32]; read-out: % inhibition (range)): 0%
- inhibition at 10 µM ([32]; read-out: inhibition (10 μM)): 13.5%
- % inhibition (range) ([33]; 10 μM): 0.0%
- inhibition (10 μM) [33]: −1.3%
- inhibition at 10 µM ([34]; read-out: % inhibition (range)): 0%
- inhibition at 10 µM ([34]; read-out: inhibition (10 μM)): -15.7%
